The results in this text go back to PubChem BioAssay (NCI).

Common to all, as to assay: NCI anticancer screen, dose series, 48 h
The test system of assay [1] is COLO 205 colon.
Assay [2] relates to TK-10 renal.
Assay [3] relates to ACHN renal.
The subject of assay [4] is PC-3 prostate.
For assay [5], the system named is NCI-H23 lung.
For assay [6], the system named is CCRF-CEM leukemia.
Assay [7] deals with SF-295 CNS.
For assay [8], the system named is A549 NSCLC.
Assay [9] relates to UACC-257 melanoma.
The subject of assay [10] is HS 578T breast.

Values joined by “and” are separate entries in the source; they are usually repeats but may differ in a detail not shown here. Equal entries are not always repeated.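 48-hour exposure; five concentrations; linearly interpolated endpoints. The concentration for 50% growth inhibition is given as GI50. The concentration for full growth arrest is given as TGI.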

On to `NC(N)=NC(N)=NCCc1ccccc1`, for which the GI50 in [1] is greater than 100 µM; in assay [2], 58.6 µM and > 100 µM; in assay [3], greater than 100 µM; in assay [4] it was 45.3 µM and 60.3 µM; in assay [5], 50.5 µM and 34.7 µM; in assay [6] it was 56.1 µM and > 100 µM. The GI50 in [7] was 53.2 µM and > 100 µM; in assay [8], > 100 µM and 97.1 µM; in assay [9], > 100 µM and 97.3 µM; in assay [10], greater than 100 µM. In addition, the TGI in assay [1], in [2], in [3], in assay [4], in assay [5] and in [6] was greater than 100 µM throughout. The TGI in [7], in assay [8], in [9] and in assay [10] was greater than 100 µM in each case.

Regarding `CS(=O)(=O)c1ccc(C(F)(F)F)cc1NC(=O)Nc1cnc(Oc2ccc(-c3cc(Cl)cnc3N)cc2)nc1`, the GI50 in [1] is 1.98 µM; in [2], 2.21 µM; in assay [3], 1.98 µM; in assay [4], 2.05 µM; in assay [5] it was 2.56 µM; in [6], 3.22 µM. The GI50 was 1.99 µM in assay [7], 3.07 µM in [8], 3.07 µM in assay [9] and 2.08 µM in assay [10]. The TGI is 4.77 µM in assay [1]; 6.92 µM in assay [2]; 6.32 µM in assay [3]; 6.23 µM in [4]; 7.69 µM in assay [5]; greater than 100 µM in assay [6]. The TGI is 5.71 µM in assay [7], greater than 32.1 µM in [8], 11.5 µM in assay [9] and 8.44 µM in [10].

Turning to `CCN(C)S(=O)(=O)Nc1cccc(Nc2ncnc3cc(NC(=O)CCl)ccc23)c1Cl`, the GI50 is 2.5 µM in [1]; 4.64 µM in assay [2]; 3.38 µM in assay [3]; 2.97 µM in [4]; 2.54 µM in assay [5]; 0.656 µM in assay [6]. Also, the GI50 in assay [7] is 3.5 µM; in [8], 6.18 µM; in assay [9], 3.59 µM; in assay [10] it was 3.55 µM. Besides, the TGI in assay [1] was determined as 6.51 µM; in [2], 13.3 µM; in assay [3], 7.67 µM; in assay [4], 8.32 µM; in assay [5], 7.88 µM; in [6], 3.77 µM. Besides, the TGI in assay [7] came out at 7.4 µM; in assay [8] it was 16.3 µM; in assay [9] it was 15.8 µM; in [10], 18.6 µM.

As to `N#Cc1ccc(-n2cnc(NC(=O)[C@H]3CCN(C#N)C3)c2)cc1`, the GI50 in assay [1] is 0.372 µM; in assay [2], 1.49 µM; in [3], 2.55 µM; in assay [4], 2.39 µM; in [5], 1.78 µM; in assay [6], 1.03 µM. Also, the GI50 in assay [7] was 2.79 µM; in assay [8] it was 3.15 µM; in assay [9], 1.94 µM; in [10], 1.9 µM. Also, the TGI is 1.93 µM in assay [1]; 7.83 µM in assay [2]; greater than 100 µM in assay [3]; 20.2 µM in [4]; 12.6 µM in assay [5]; greater than 100 µM in assay [6]. In addition, the TGI in assay [7] was greater than 66.3 µM; in [8], greater than 100 µM; in [9] it was 10.1 µM; in assay [10], 13.6 µM.

As for `CC(=O)N1c2ccccc2C23CCN4CC5=CCOC(O)C(C5CC42)C13` (stereo not given), the TGI in assay [1], in assay [2], in assay [3], in [4], in [5] and in [6] was greater than 100 µM each time. Further, the TGI in assay [7], in assay [8], in [9] and in assay [10] was greater than 100 µM each time.

In the case of `CCOC(=O)C(=Cc1ccc(Br)cc1)C(=O)OCC`, the GI50 was 1.89 µM in assay [1]; 3.13 µM in assay [2]; 2.09 µM in assay [3]; 1.86 µM in assay [4]; 2.32 µM in [5]; 0.838 µM in [6]. Also, the GI50 was 2.74 µM in [7], 2.28 µM in assay [8], 1.88 µM in [9] and 4.03 µM in assay [10]. Besides, the TGI in [1] is 3.94 µM; in assay [2] it was 8.57 µM; in assay [3], 4.45 µM; in assay [4], 5.96 µM; in assay [5], 5.7 µM; in [6] it was 7.34 µM. Moreover, the TGI in [7] is 9.36 µM; in assay [8], 5.83 µM; in assay [9], 4.15 µM; in assay [10], greater than 19.6 µM.

In the case of `O=C(c1cccs1)c1c(C(F)(F)F)n([O-])c2cc(F)c(F)cc2[n+]1=O`, the GI50 in assay [1] was 3.15 µM; in assay [2] it was 1.36 µM; in assay [3], 0.419 µM; in [4], 2.62 µM; in assay [5], 2.26 µM; in [6], 0.18 µM. In addition, the GI50 is 3.71 µM in assay [7], 6.16 µM in assay [8], 3.11 µM in assay [9] and 1.21 µM in assay [10]. Besides, the TGI in assay [1] was determined as 5.9 µM; in assay [2] it was 3.99 µM; in assay [3], 1.4 µM; in [4] it was 4.82 µM; in assay [5], 4.94 µM; in assay [6], 0.729 µM. In addition, the TGI in assay [7] turned out to be 7.3 µM; in assay [8] it was 12.5 µM; in assay [9], 6.79 µM; in [10], 12.1 µM.

On to `Cc1cc(N2CCN(C)CC2)nc(NC2CCCC(Nc3ccnc4cc(Cl)ccc34)C2)n1` (stereo not given), for which the GI50 in assay [1] is 1.68 µM; in assay [2], 1.81 µM; in assay [3], 1.86 µM; in assay [4], 3.35 µM; in assay [5], 4.19 µM; in [6], 1.78 µM. Also, the GI50 was 1.68 µM in assay [7], 3.14 µM in [8], 2.1 µM in assay [9] and 2.17 µM in assay [10]. In addition, the TGI came out at 3.45 µM in assay [1]; 3.63 µM in assay [2]; 3.51 µM in assay [3]; 11.4 µM in assay [4]; 17.7 µM in [5]; 7.34 µM in assay [6]. Further, the TGI in assay [7] was 3.25 µM; in assay [8], 11 µM; in assay [9], 3.93 µM; in assay [10], 6.41 µM.

With `O=C1/C(=C\c2ccccc2)c2ccccc2N1Cc1ccccc1`, the TGI in assay [1] was determined as 33.3 µM; in assay [2], 17.4 µM; in assay [3], 25.1 µM; in assay [4] it was 15.9 µM; in assay [5] it was 16.8 µM; in [6] it was 12.6 µM. Besides, the TGI in [7] is 16.2 µM; in assay [8], 22.5 µM; in assay [9] it was 17.6 µM; in assay [10] it was 20.9 µM.
